Measurements taken from article PMC10545790.
Values joined by “and” are separate entries in the source; they are usually repeats but may differ in a detail not shown here. Equal values may be shown once. “Also recorded” adds a separate entry of the source. Where a name gives a salt, the structure may show the parent alone.

Columns and labels:
[1] = in vitro; conditions: both, human
[2] = Thermal and chemical stability; assay type: physicochemical
Text: We also examined the thermal and chemical stability of the synthesized 2-oxabicyclo[2.2.2]octanes. As representative examples, we selected three molecules: isomeric acids 47, 54, and amine 52. All 2-oxabicyclo[2.2.2]octanes were crystalline solids that were stable in air. We stored them in stock at room temperature in closed vials and observed no changes according to ^1H NMR after one year. […] Treatment of the selected 2-oxabicyclo[2.2.2]octanes with aq. 1 M HCl, or aq.

[3] = system: human hepatocellular carcinoma cells HepG2; assay: High Content Imaging of HepG2 cells: nuclei count, necrosis (PI), apoptosis (caspase 3/7); assay type: cell-based; set-up: Nuclei Area wv1 / Mean nuclei area: unit not given here; conditions: for Mean nuclei area / Mean nuclei intensity / % of early apoptotic cells (PI negative, caspase positive) / % of necrotic and late apoptotic cells (PI positive) / All Targets.PI negative.casp positive (%) / All Targets.PI positive (%) / Nuclei Area wv1 / Nuclei Intensity wv1 / Nuclei Count wv1 / % of necrotic and late apoptotic cells (PI positive); cell toxicity level / inhibition of cell proliferation (in words) / cytotoxic effects (in words) / effect on cell proliferation (in words): HepG2, 48 h; for Mean nuclei intensity: Hoechst 33342; for % of early apoptotic cells (PI negative, caspase positive) / % of necrotic and late apoptotic cells (PI positive) / % of necrotic and late apoptotic cells (PI positive); cell toxicity level: mean of 3 wells; for All Targets.PI negative.casp positive (%) / All Targets.PI positive (%) / Nuclei Area wv1 / Nuclei Intensity wv1: single well; for Nuclei Count wv1: single well (concentration from plate map the 5th table); for inhibition of cell proliferation (in words): 50 μM, nuclei count; for effect on HepG2 cell death / apoptosis compared with Vorinostat (in words): HepG2, 48 h, 1, 5 and 50 μM; for cytotoxic effects (in words) / effect on cell proliferation (in words): 1 and 5 μM
Protocol: proliferation and cell death mechanisms, using High Content Imaging assay. The following parameters were assessed: nuclei count to measure inhibiting of the proliferation; cell membrane permeability to assess general cytotoxicity and necrosis; caspase activation to test apoptosis. […]
Human hepatocellular carcinoma HepG2 cell line was used to test biological action of Vorinostat and its analogues. Cell line was obtained from Leibniz Institute DSMZ - German Collection of Microorganisms and Cell Cultures. Cells were cultured in DMEM medium (Hyclone, Cat# SH30003.04) supplemented with 10% fetal bovine serum (Sigma-Aldrich, Cat# F7524), 100 units/mL penicillin and 100 μg/mL streptomycin (Sigma-Aldrich, Cat# P4333).
Before plating, the cells were first washed with PBS and then trypsinized with 0.01% trypsin solution (Sigma-Aldrich, Cat# T4174) in DPBS. The appropriate volume of culture medium was placed in a flask to stop further trypsinization, then the cells were centrifugated at 200 x g for 4 min, resuspended in fresh complete medium and counted using a counting chamber after being stained with Trypan Blue. […]
μL total volume per well and incubated at 37 °C/5%CO2/95%RH overnight. Vorinostat and test compounds were dissolved in 100% DMSO at a concentration of 10 mM and stored at -20 °C as single-use aliquots. Next day 20 μL of medium with compounds was added to the cells to the final DMSO concentration […]. Treatment for 48 hours was performed under growth conditions.
Compounds were assessed at the final concentrations 1, 5 and 50 μM (each in triplicates - 3 wells, 9 fields of view per well). Staining for nuclei, apoptotic cells with activated caspase 3/7 and dead […]
cells with permeabilized membrane was performed for 30 min under growth conditions in staining […]
3/7 Detection Reagent (Invitrogen, Cat# C10423) and 1 μM Propidium Iodide (Invitrogen, Cat# P3566) in medium complete. The cells were imaged with InCell Analyzer 6500, 20x obj. Image […]
Data were analyzed in GraphPad Prism 9.
Supplementary Fig. 16. Workflow of multiplexed cells staining.
Multiplexed staining allows to test cell toxicity and distinguish between necrosis and apoptosis within one single experiment (Supplementary Fig. 16).
CellEvent Caspase-3/7 Green Detection Reagent labels cells with activated caspases. Propidium Iodide (PI) labels dead cells with permeabilized membrane. Hoechst-positive cells were counted to assess the % of cell toxicity. PI-positive cells are dead – this is a fraction of necrotic and late apoptotic cells, used for assessing of cytotoxicity/necrosis. Early apoptotic cells are caspase-positive, PI-negative because their membrane isn’t compromised yet. Percentages of cells of certain […]
background and comparing with overall number of cells.

[4] = microsomes, pH 7.4, % Remaining, Mean of 2

| Structure (SMILES) | Mean nuclei area ([3]; 1 uM) | Mean nuclei intensity ([3]; 1 uM) [RFU] | % of early apoptotic cells (PI negative, caspase positive) ([3]; 1 uM) [%] | % of necrotic and late apoptotic cells (PI positive) ([3]; 1 uM) [%] | All Targets.PI negative.casp positive (%) ([3]; 1 uM) | All Targets.PI positive (%) ([3]; 1 uM) | Nuclei Area wv1 ([3]; 1 uM) | Nuclei Count wv1 ([3]; 1 uM) | Mean nuclei area ([3]; 5 uM) | Mean nuclei intensity ([3]; 5 uM) [RFU] | % of early apoptotic cells (PI negative, caspase positive) ([3]; 5 uM) [%] | % of necrotic and late apoptotic cells (PI positive) ([3]; 5 uM) [%] | All Targets.PI negative.casp positive (%) ([3]; 5 uM) | All Targets.PI positive (%) ([3]; 5 uM) | Nuclei Area wv1 ([3]; 5 uM) | Nuclei Intensity wv1 ([3]; 5 uM) | Nuclei Count wv1 ([3]; 5 uM) | Mean nuclei area ([3]; 50 uM) | Mean nuclei intensity ([3]; 50 uM) [RFU] | % of early apoptotic cells (PI negative, caspase positive) ([3]; 50 uM) [%] | also measured |
| --- | --- | --- | --- | --- | --- | --- | --- | --- | --- | --- | --- | --- | --- | --- | --- | --- | --- | --- | --- | --- | --- |
| CC(C)NCC(O)COc1cccc2ccccc12 (racemic) [Propranolol, (+,-) Propranolol hydrochloride] |  |  |  |  |  |  |  |  |  |  |  |  |  |  |  |  |  |  |  |  | remaining at 40 min, 2 µM [1, 4]: 66%; half-life at 2 µM ([1]; microsomes, pH 7.4, t1/2: half-time of a metabolic decomposition): 1.02 h; k el at 2 µM ([1]; pH 7.4, kel (elimination constant)): 0.000183 s⁻¹ |
| CC12CCC(CN)(CC1)OC2 [Compound 52] |  |  |  |  |  |  |  |  |  |  |  |  |  |  |  |  |  |  |  |  | chemical stability in acid ([2]; aq. 1 M HCl, room temperature, 1 h): no decomposition; chemical stability in base ([2]; aq. 1 M NaOH, room temperature, 1 h): no decomposition; thermal stability ([2]; heating at 100 °C for five minutes): remained stable; stability on storage ([2]; in air, room temperature, closed vials, one year, 1H NMR): no changes |
| O=C(CCCCCCC(=O)NC12CCC(CC1)OC2)NO [Compound 88] | 117.1 | 2764.0 | 0.344 | 0.9 | 0.2791% and 0.3975% and 0.3542% | 1.031% and 0.9564% and 0.6961% | 117.054 and 118.289 and 116.039 | 8241 and 8051 and 8188 | 118.3 | 3381.0 | 0.463 | 0.8 | 0.548% and 0.4031% and 0.4377% | 0.8821% and 0.8306% and 0.721% | 119.866 and 117.043 and 117.864 | 3478.61 and 2783.26 and 3882.1 | 7482 and 8187 and 7767 | 129.6 | 3968.0 | 12.0 | Nuclei Intensity wv1 ([3]; 1 uM): 2311.93 and 2195.12 and 3784.44; % of necrotic and late apoptotic cells (PI positive); cell toxicity level ([3]; 50 uM): 18% and 18.5%; inhibition of cell proliferation (in words) [3]: inhibited cell proliferation at 50 μM concentration to the same level as Vorinostat; All Targets.PI negative.casp positive (%) ([3]; 50 uM): 11.5569% and 11.4167% and 12.9144%; All Targets.PI positive (%) ([3]; 50 uM): 19.3713% and 17.5096% and 18.5033%; Nuclei Area wv1 ([3]; 50 uM): 130.383 and 125.337 and 133.198; Nuclei Intensity wv1 ([3]; 50 uM): 4177.18 and 3221.5 and 4506.24; Nuclei Count wv1 ([3]; 50 uM): 3340 and 3381 and 3167; effect on HepG2 cell death / apoptosis compared with Vorinostat (in words) [3]: active; cytotoxic effects (in words) [3]: did not demonstrate any significant cytotoxic effects; effect on cell proliferation (in words) [3]: did not have any significant effects |
| O=C(CCCCCCC(=O)NC12CCC(CC1)CC2)NO [Compound 89] | 117.0 | 3374.0 | 0.444 | 0.6 | 0.4175% and 0.3796% and 0.5358% | 0.5526% and 0.5457% and 0.7144% | 115.697 and 116.603 and 118.647 | 8143 and 8429 and 8399 | 120.9 | 4138.0 | 0.563 | 0.9 | 0.4763% and 0.5673% and 0.6459% | 0.9922% and 0.9996% and 0.6321% | 120.224 and 120.771 and 121.802 | 4041.68 and 3853.68 and 4517.41 | 7559 and 7403 and 7277 | 115.2 | 2088.0 | 9.5 | % of necrotic and late apoptotic cells (PI positive); cell toxicity level ([3]; 50 uM): 67% and 67.1%; inhibition of cell proliferation (in words) [3]: inhibited cell proliferation at 50 μM concentration to the same level as Vorinostat; All Targets.PI negative.casp positive (%) ([3]; 50 uM): 10.5117% and 9.102% and 8.933%; All Targets.PI positive (%) ([3]; 50 uM): 65.2916% and 67.7168% and 68.1969%; Nuclei Area wv1 ([3]; 50 uM): 113.454 and 115.571 and 116.43; Nuclei Intensity wv1 ([3]; 50 uM): 1984.47 and 1672.21 and 2607.1; Nuclei Count wv1 ([3]; 50 uM): 2521 and 2571 and 2418; effect on HepG2 cell death / apoptosis compared with Vorinostat (in words) [3]: activity profile was the closest to Vorinostat; also recorded: active; cytotoxic effects (in words) [3]: did not demonstrate any significant cytotoxic effects; effect on cell proliferation (in words) [3]: did not have any significant effects |
| Cc1ccc(NC(=O)c2ccc(CN3CCN(C)CC3)cc2)cc1Nc1nccc(-c2cccnc2)n1 [Imatinib] |  |  |  |  |  |  |  |  |  |  |  |  |  |  |  |  |  |  |  |  | remaining at 40 min, 2 µM ([1]; microsomes, pH 7.4, % Remaining without cofactor, Mean of 2): 88%; remaining at 7 min, 2 µM [1, 4]: 109%; remaining at 0.25 h, 2 µM [1, 4]: 93%; remaining at 25 min, 2 µM [1, 4]: 82%; remaining at 40 min, 2 µM [1, 4]: 66% |
| O=C(CCCCCCC(=O)Nc1ccccc1)NO [Vorinostat, reference compound] | 133.3 | 3539.0 | 1.4 | 2.0 | 1.09% and 1.685% and 1.464% | 1.46% and 2.372% and 2.236% | 132.596 and 129.806 and 137.55 | 5137 and 4806 and 4919 | 133.4 | 4444.0 | 7.2 | 10.4 | 8.109% and 5.087% and 8.342% | 11.8095% and 7.619% and 11.7647% | 135.125 and 131.698 and 133.281 | 4725.81 and 3784.72 and 4822.36 | 3675 and 4187 and 3740 | 122.1 | 1952.0 | 12.2 | Nuclei Intensity wv1 ([3]; 1 uM): 3323.23 and 3018.81 and 4275.36; % of necrotic and late apoptotic cells (PI positive); cell toxicity level ([3]; 50 uM): 77% and 77.5%; All Targets.PI negative.casp positive (%) ([3]; 50 uM): 12.2839% and 13.7268% and 10.5715%; All Targets.PI positive (%) ([3]; 50 uM): 77.0504% and 75.6692% and 79.9029%; Nuclei Area wv1 ([3]; 50 uM): 120.16 and 121.222 and 124.941; Nuclei Intensity wv1 ([3]; 50 uM): 1713 and 2196.3 and 1947.17; Nuclei Count wv1 ([3]; 50 uM): 2719 and 2914 and 2677 |
